Measurements taken from US20250248979A1, “NOVEL GPX4 INHIBITORS AND USES THEREOF” (THE TRUSTEES OF COLUMBIA UNIVERSITY IN THE CITY OF NEW YORK, priority 2022, published 2025).

target: T1, GPX4 (Homo sapiens, UniProt P36969); experiment: GPX4 activity assay in cell lysates (NADPH-coupled); assay type: biochemical; parameters: endogenous in cells; host or cells: A-673 cell lysate; conditions: 20 μM; generation 2
T1 sequence (P36969 1-170 isoform P36969-2): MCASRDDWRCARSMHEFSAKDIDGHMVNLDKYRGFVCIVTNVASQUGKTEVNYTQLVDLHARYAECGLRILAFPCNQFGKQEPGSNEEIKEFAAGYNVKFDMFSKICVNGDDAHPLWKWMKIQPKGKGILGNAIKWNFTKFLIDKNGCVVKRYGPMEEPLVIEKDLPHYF
Experimental: Determination of GPX4 activity in cell lysates was performed as previously described by Roveri et al. 1994 with minor modifications. Briefly, the assay measures the consumption of NADPH, which has a characteristic absorbance at 340 nm, over time as a proxy for GPX4 activity. The rationale for this is that as GPX4 reduces phospholipid hydroperoxides, it oxidizes glutathione, which is then regenerated by glutathione reductase at the expense of NADPH. NADPH is added to the assay in excess such that the reduction of oxidized glutathione is not the rate-limiting reaction in the assay. Thus, the resulting reduction in NADPH absorbance over time reflects GPX4 activity.
The GPX4-specific substrate phosphatidylcholine hydroperoxide (PCOOH) was prepared by enzymatic hydroperoxidation. Specifically, 0.3 mM phosphatidylcholines (Sigma-Aldrich) were incubated with 0.7 mg soybean lipoxidase type IV (Sigma-Aldrich) in 22 mL of 0.2 M Tris-HCl pH 8.8 with 3 mM sodium deoxycholate at room temperature under continuous stirring for 30 minutes. A Sep-Pak C18 cartridge (Waters-Millipore) was pre-washed with methanol and equilibrated with water, then the substrate mixture was loaded. The column was washed with 10 volumes of water and PCOOH was eluted with 2 mL of methanol.
To prepare the cell lysate containing native GPX4, A-673 cells were cultured with 20 nM sodium selenite to confluency over two days then harvested and washed with cold PBS. Cells were then resuspended at 10 million cells per 1 mL LCW lysis buffer (0.5% peroxide-free Triton X-100, 0.5% sodium deoxycholate salt, 150 mM NaCl, 20 mM Tris-HCl pH 7.5, 10 mM EDTA, 30 mM sodium pyrophosphate, and complete protease inhibitor cocktail), vortexed for 30 seconds, and incubated on ice for 15 minutes. After lysis, the lysates were centrifuged at 14,000×g and 4° C. for 15 minutes. The supernatants were transferred to new pre-chilled tube and the debris pellet was discarded. The protein concentration in the lysate was determined for normalization using the BCA Protein Assay Kit (Pierce).
To measure GPX4 activity, 50 μL of cell lysate was combined with 200 μL activity assay buffer (0.1% Triton X-100, 100 mM Tris-HCl pH 8.0, 10 mM sodium azide, 5 mM EDTA, 0.6 IU/mL glutathione reductase, 0.5 mM NADPH and 3 mM GSH) and compounds of interest in a clear 96-well plate and incubated at 37° C. for 45 minutes. Compounds were dissolved in DMSO. All conditions were tested in triplicate. PCOOH substrate was added to the mixture to initiate GPX4 activity just before reading the plate. The absorbance of NADPH at 340 nm was monitored kinetically over time for 25 minutes. Buffer-only controls and controls without substrate containing only the methanol vehicle were performed to assess background and baseline signal. GPX4 activity was calculated as previously reported by Stolwijk et al. 2020 and results were analyzed in GraphPad Prism 9.

| SMILES | GPX4% inhibition at 20 (μM) [%] |
| --- | --- |
| Cn1nc(C(=O)N2CCN(C(=O)CCl)CC2)c2ccccc21 [QW-370] | 0.5 ± 5.4 |
| Cc1onc(C(=O)N2CCN(C(=O)c3nn(C)c4ccccc34)CC2)c1[N+](=O)[O-] [QW-371] | 2.9 ± 2.2 |
| Cn1nc(C(=O)NC(C)(C)COC(=O)C(F)Cl)c2ccccc21 (stereo not drawn) [QW-374] | 1.6 ± 3.0 |

same assay, conditions: 200 μM

| SMILES | GPX4 inhibition [%] |
| --- | --- |
| CC(C)(COC(=O)CCl)NC(=O)c1c[nH]c2ccccc12 [QW-280] | 76 |

same assay, conditions: 200 μM; generation 1; mean ± s.d., n = 3

| SMILES | GPX4% inhibition at 200 (μM) [%] |
| --- | --- |
| COc1cccc2[nH]c(C(=O)NC(C)(C)COC(=O)CBr)cc12 [QW-159] | 56.0 ± 7.3 |
| CC(C)(COC(=O)CBr)NC(=O)c1cc2ccccc2[nH]1 [QW-160] | 33.3 ± 6.0 |
| Cc1ccc2[nH]c(C(=O)NC(C)(C)COC(=O)CBr)cc2c1 [QW-161] | 65.0 ± 7.2 |
| COc1ccc2cc(C(=O)NC(C)(C)COC(=O)CBr)[nH]c2c1 [QW-162] | 103.8 ± 7.6 |
| CC(C)(COC(=O)CBr)NC(=O)c1cc2cc(Cl)ccc2[nH]1 [QW-165] | 73.9 ± 5.3 |
| C=CC(=O)OCC(C)(C)NC(=O)c1cc2ccccc2[nH]1 [QW-166] | 1.8 ± 8.0 |
| C=CC(=O)OCC(C)(C)NC(=O)c1cc2cc(Cl)ccc2[nH]1 [QW-167] | 7.8 ± 12.8 |
| C=CC(=O)OCC(C)(C)NC(=O)c1cc2c(OC)cccc2[nH]1 [QW-168] | −8.8 ± 10.8 |
| C=CC(=O)OCC(C)(C)NC(=O)c1cc2ccc(Br)cc2[nH]1 [QW-169] | 14.0 ± 8.6 |
| C=CC(=O)OCC(C)(C)NC(=O)c1cc2cc(C)ccc2[nH]1 [QW-170] | 5.3 ± 10.0 |
| C=CC(=O)OCC(C)(C)NC(=O)c1cc2cc([N+](=O)[O-])ccc2[nH]1 [QW-172] | 16.1 ± 16.0 |
| CC(C)(COC(=O)CCl)NC(=O)c1cccs1 [QW-259] | 27.7 ± 26.1 |
| CC(C)(COC(=O)CBr)NC(=O)c1cccs1 [QW-260] | 41.1 ± 4.6 |
| C=CC(=O)OCC(C)(C)NC(=O)c1cccs1 [QW-261] | 23.2 ± 17.0 |
| Cc1onc(C(=O)OCC(C)(C)NC(=O)c2cccs2)c1[N+](=O)[O-] [QW-262] | −0.6 ± 7.8 |
| CC(C)(COC(=O)CCl)NC(=O)Cc1cc2ccccc2[nH]1 [QW-265] | 61.2 ± 11.3 |
| CC(C)(COC(=O)CBr)NC(=O)Cc1cc2ccccc2[nH]1 [QW-266] | 48.8 ± 3.3 |
| C=CC(=O)OCC(C)(C)NC(=O)Cc1cc2ccccc2[nH]1 [QW-267] | 14.7 ± 5.7 |
| Cc1onc(C(=O)OCC(C)(C)NC(=O)Cc2cc3ccccc3[nH]2)c1[N+](=O)[O-] [QW-268] | −8.0 ± 15.8 |
| CC(C)(COC(=O)CCl)NC(=O)CCc1cc2ccccc2[nH]1 [QW-270] | 65.5 ± 1.6 |
| CC(C)(COC(=O)CBr)NC(=O)CCc1cc2ccccc2[nH]1 [QW-271] | 40.2 ± 5.2 |
| CC(C)(COC(=O)CCl)NC(=O)c1cc2ccccc2s1 [QW-274] | 27.5 ± 4.4 |
| CC(C)(COC(=O)CBr)NC(=O)c1cc2ccccc2s1 [QW-275] | 63.1 ± 3.6 |
| C=CC(=O)OCC(C)(C)NC(=O)c1cc2ccccc2s1 [QW-276] | 5.9 ± 4.4 |

| SMILES | GPX4% inhibition at 200 (μM) [%] |
| --- | --- |
| Cc1onc(C(=O)OCC(C)(C)NC(=O)c2cc3ccccc3s2)c1[N+](=O)[O-] [QW-277] | 12.4 ± 20.1 |
| CC(C)(COC(=O)CCl)NC(=O)c1c[nH]c2ccccc12 [QW-280] | 75.9 ± 15.5 |
| CC(C)(COC(=O)CBr)NC(=O)c1c[nH]c2ccccc12 [QW-281] | 58.7 ± 11.5 |
| C=CC(=O)OCC(C)(C)NC(=O)c1c[nH]c2ccccc12 [QW-282] | 12.7 ± 4.7 |
| Cc1onc(C(=O)OCC(C)(C)NC(=O)c2c[nH]c3ccccc23)c1[N+](=O)[O-] [QW-283] | −6.6 ± 8.5 |
| COc1ccc2cc(C(=O)NC(C)(C)CCOC(=O)CCl)[nH]c2c1 [QW-284] | 71.0 ± 22.2 |
| COc1ccc2cc(C(=O)NC(C)(C)CCOC(=O)CBr)[nH]c2c1 [QW-285] | 77.9 ± 7.6 |
| C=CC(=O)OCCC(C)(C)NC(=O)c1cc2ccc(OC)cc2[nH]1 [QW-286] | 11.5 ± 7.1 |
| CC(C)(COC(=O)CCl)NC(=O)c1ccc[nH]1 [QW-290] | 20.6 ± 9.0 |
| CC(C)(COC(=O)CBr)NC(=O)c1ccc[nH]1 [QW-291] | 20.0 ± 4.0 |
| C=CC(=O)OCC(C)(C)NC(=O)c1ccc[nH]1 [QW-292] | 7.9 ± 5.3 |
| Cc1onc(C(=O)OCC(C)(C)NC(=O)c2ccc[nH]2)c1[N+](=O)[O-] [QW-293] | −13.1 ± 14.6 |
| C=CC(=O)OCCNC(=O)c1cc2ccc(OC)cc2[nH]1 [QW-301] | 3.3 ± 1.2 |
| COc1ccc2cc(C(=O)NCC(C)(C)COC(=O)CCl)[nH]c2c1 [QW-302] | 68.9 ± 1.8 |
| O=C(CCl)OCCCNC(=O)c1cc2cc(Cl)ccc2[nH]1 [QW-304] | 78.3 ± 4.3 |
| C=CC(=O)OCCCNC(=O)c1cc2cc(Cl)ccc2[nH]1 [QW-306] | 6.2 ± 7.5 |
| COc1ccc2cc(C(=O)NC(C)(C)COC(=O)CCl)n(C)c2c1 [QW-320] | 84.3 ± 9.3 |
| Cn1c(C(=O)NC(C)(C)COC(=O)CCl)cc2ccc(Br)cc21 [QW-321] | 90.3 ± 4.8 |
| COc1ccc2[nH]cc(C(=O)NC(C)(C)COC(=O)CCl)c2c1 [QW-322] | 16.0 ± 4.9 |
| Cn1cc(C(=O)NC(C)(C)COC(=O)CCl)c2ccc(Br)cc21 [QW-325] | 76.6 ± 3.9 |
| Cn1cc(C(=O)NC(C)(C)COC(=O)C#C[Si](C)(C)C)c2ccc(Br)cc21 [QW-337] | 67.2 ± 3.4 |
| CC(C)(COC(=O)CCl)NC(=O)c1cc2cc(F)ccc2[nH]1 [QW-338] | 42.6 ± 7.0 |
| CC(C)(COC(=O)CCl)NC(=O)c1cc2cc(F)c(F)cc2[nH]1 [QW-339] | 43.4 ± 11.5 |
| CC(C)(COC(=O)CCl)NC(=O)c1cc2ccc(F)cc2[nH]1 [QW-353] | 69.6 ± 6.2 |

same assay, conditions: 200 μM; generation 2

| SMILES | GPX4% inhibition at 200 (μM) [%] |
| --- | --- |
| CC(C)(COC(=O)CCl)NC(=O)c1n[nH]c2ccccc12 [QW-296] | 83.1 ± 21.9 |
| CC(C)(COC(=O)CBr)NC(=O)c1n[nH]c2ccccc12 [QW-297] | 73.1 ± 14.6 |
| C=CC(=O)OCC(C)(C)NC(=O)c1n[nH]c2ccccc12 [QW-298] | 7.9 ± 8.2 |
| Cc1onc(C(=O)OCC(C)(C)NC(=O)c2n[nH]c3ccccc23)c1[N+](=O)[O-] [QW-299] | 6.3 ± 4.7 |
| COc1ccc2c(C(=O)NC(C)(C)COC(=O)CCl)n[nH]c2c1 [QW-326] | 84.3 ± 8.9 |
| Cn1nc(C(=O)N2CCN(C(=O)CCl)CC2)c2ccc(Br)cc21 [QW-330] | 33.2 ± 6.8 |
| Cc1onc(C(=O)OCC(C)(C)NC(=O)c2nn(C)c3ccccc23)c1[N+](=O)[O-] [QW-363] | −15.4 ± 8.4 |
| C=CC(=O)OCC(C)(C)NC(=O)c1nn(C)c2ccccc12 [QW-366] | −7.3 ± 0.5 |
| Cn1nc(C(=O)NC(C)(C)COC(=O)C#C[Si](C)(C)C)c2ccccc21 [QW-367] | 7.0 ± 3.9 |

same assay, conditions: 200 μM; mean ± s.d., n = 3

| SMILES | GPX4% inhibition at 200 (μM) [%] |
| --- | --- |
| O=C(c1cc2cc(Cl)ccc2[nH]1)n1ccnc1 [QW-002] | 18.7 ± 15.8 |
| O=C(c1cc2cc([N+](=O)[O-])ccc2[nH]1)n1ccnc1 [QW-049] | −2.6 ± 14.6 |
| Cc1ccc2[nH]c(C(=O)n3ccnc3)cc2c1 [QW-056] | 32.7 ± 18.4 |
| O=C(c1c[nH]c2ccccc12)n1ccnc1 [QW-058] | 37.8 ± 0.9 |
| O=C(c1cc2ccccc2[nH]1)n1ccnc1 [QW-064] | 31.9 ± 16.6 |
